Data as given in US20250333397A1 (REMIX THERAPEUTICS INC., priority 2021, published 2025).
pIC50: −log10 of the molar value. Read-outs that look alike come from different tables or passages of the source.

Tests used:
Format in all cases: cell-based, human
[1] = tested on: SMN2 mRNA; assay: RT-qPCR splicing assay panel, SMN2 canonical junction (CJ) mRNA; settings: Homo sapiens
Procedure, shortened: (§1)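 A673 (DMEM/10% FBS) or K562 (IMDM/10% FBS) cells treated 24 h at 37 °C with 11-point 3-fold dilutions, top 10 uM final, DMSO ≤0.25%. Lysates read by one-step RT-qPCR for CJ and AJ isoforms, normalized to GAPDH, GUSB or PPIA. ΔΔCt vs DMSO gives RQ via 2^(-ΔΔCt).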

[2] = tested on: Target C mRNA; assay: RT-qPCR splicing assay panel, Target C canonical junction (CJ) mRNA; settings: Homo sapiens
Procedure, shortened: as §1

[3] = tested on: MYB mRNA; assay: RT-qPCR splicing assay, MYB canonical (CJ) and alternative (AJ) junction mRNA; settings: for AC50: read-out: MYB AJ (AC50, increase in AJ mRNA)
Procedure, shortened: as §1

[4] = tested on: HTT mRNA; assay: RT-qPCR splicing assay, HTT canonical (CJ) and alternative (AJ) junction mRNA; settings: Homo sapiens; for AC50: read-out: HTT AJ (AC50, increase in AJ mRNA)
Procedure, shortened: as §1

[5] = canonical junction (CJ) mRNA, RT-qPCR panel, Table 4A, read-out: SMN2, decrease in CJ mRNA levels, IC50
[6] = canonical junction (CJ) mRNA, RT-qPCR panel, Table 4A, read-out: Target C, decrease in CJ mRNA levels, IC50
[7] = Homo sapiens, 24 h, Table 3A, A673 or K562 cells, 24 h treatment
[8] = Homo sapiens, 24 h, Table 3A, A673 or K562 cells, 24 h treatment, read-out: MYB CJ (IC50, decrease in CJ mRNA)
[9] = Homo sapiens, canonical junction (CJ) mRNA, RT-qPCR panel, Table 4A, read-out: MYB, decrease in CJ mRNA levels, IC50
[10] = 24 h, Table 3A, A673 or K562 cells, 24 h treatment
[11] = 24 h, Table 3A, A673 or K562 cells, 24 h treatment, read-out: HTT CJ (IC50, decrease in CJ mRNA)
[12] = canonical junction (CJ) mRNA, RT-qPCR panel, Table 4A, read-out: HTT, decrease in CJ mRNA levels, IC50
[13] = Table 4B, gene panel, read-out: SMN2 (IC50, decrease in CJ mRNA levels)
[14] = Table 4B, gene panel, read-out: Target C (IC50, decrease in CJ mRNA levels)
[15] = Homo sapiens, 24 h, Table 3B, A673 or K562 cells, 24 h treatment
[16] = Homo sapiens, 24 h, Table 3B, A673 or K562 cells, 24 h treatment, read-out: MYB CJ (IC50, decrease in CJ mRNA)
[17] = Homo sapiens, Table 4B, gene panel, read-out: MYB (IC50, decrease in CJ mRNA levels)
[18] = 24 h, Table 3B, A673 or K562 cells, 24 h treatment
[19] = 24 h, Table 3B, A673 or K562 cells, 24 h treatment, read-out: HTT CJ (IC50, decrease in CJ mRNA)
[20] = Table 4B, gene panel, read-out: HTT (IC50, decrease in CJ mRNA levels)

Row | Structure (SMILES) | pIC50 [1, 5] | pIC50 [2, 6] | AC50 [3, 7] | pIC50 [3, 8] | pIC50 [3, 9] | AC50 [4, 10] | pIC50 [4, 11] | pIC50 [4, 12] | AC50 ([3]; Table 3A, A673 or K562 cells, 24 h treatment) | pIC50 [1, 13] | pIC50 [2, 14] | AC50 [3, 15] | pIC50 [3, 16] | pIC50 [3, 17] | AC50 [4, 18] | pIC50 [4, 19] | pIC50 [4, 20]
1 | COc1cncc(-c2cc(O)c(-c3ccc(N4CC[C@H](NC5CCC5)C4)nn3)cc2F)c1 [Compound 224, 2-{6-[(3S)-3-(cyclobutylamino)pyrrolidin-1-yl]pyridazin-3-yl}-4-fluoro-5-(5-methoxypyridin-3-yl)phenol] | 5.00 to 6.00 | < 5.00 | > 10 µM | < 5.00 | < 5.00 | > 10 µM | 5.00 to 6.00 | 5.00 to 6.00 | – | – | – | – | – | – | – | – | –
2 | CN([C@@H]1CCN(c2ccc(-c3ccc(-c4cn[nH]c4)cc3O)nn2)C1)C(C)(C)C [Compound 406, 2-{6-[(3R)-3-[tert-butyl(methyl)amino]pyrrolidin-1-yl]pyridazin-3-yl}-5-(1H-pyrazol-4-yl)phenol] | 6.00 to 7.00 | 6.00 to 7.00 | – | 6.00 to 7.00 | 6.00 to 7.00 | 0.1 to 1 µM | 6.00 to 7.00 | 6.00 to 7.00 | 1 to 10 µM | – | – | – | – | – | – | – | –
3 | Cc1ncc(-c2ccc(-c3ccc(N4CCC(NC5CCC5)C4)nn3)c(O)c2)o1 (stereo not shown) [Compound 347, 2-{6-[3-(cyclobutylamino)pyrrolidin-1-yl]pyridazin-3-yl}-5-(2-methyl-1,3-oxazol-5-yl)phenol] | > 7.00 | 6.00 to 7.00 | 0.1 to 1 µM | 6.00 to 7.00 | 6.00 to 7.00 | 0.1 to 1 µM | 6.00 to 7.00 | 6.00 to 7.00 | – | – | – | – | – | – | – | – | –
4 | COc1cc(-c2ccc(-c3ccc(N4CC[C@](C)(NC5CCC5)C4)nn3)c(O)c2)ncn1 [Compound 365, 2-{6-[(3S)-3-(cyclobutylamino)-3-methylpyrrolidin-1-yl]pyridazin-3-yl}-5-(6-methoxypyrimidin-4-yl)phenol] | > 7.00 | > 7.00 | 0.1 to 1 µM | 6.00 to 7.00 | 6.00 to 7.00 | < 0.1 µM | > 7.00 | > 7.00 | – | – | – | – | – | – | – | – | –
5 | Cc1nc2cc(O)c(-c3ccc(N4CC[C@H](N(C)C(C)(C)C)C4)nn3)cc2o1 [Compound 858] | – | – | – | – | – | – | – | – | – | > 7.00 | 6.00 to 7.00 | 0.1 to 1 µM | 6.00 to 7.00 | 6.00 to 7.00 | < 0.1 µM | > 7.00 | > 7.00
6 | Cn1ccc2cc(O)c(-c3cnc(N4CCC(NC(C)(C)C)C4)nn3)cc2c1=O (stereo not shown) [Compound 869] | – | – | – | – | – | – | – | – | – | < 5.00 | < 5.00 | > 10 µM | < 5.00 | < 5.00 | > 10 µM | < 5.00 | < 5.00
7 | Cc1nnc(-c2ccc(-c3ccc(N4CC[C@@H](NCC5CC5)C4)nn3)c(O)c2)s1 [Compound 415] | > 7.00 | 6.00 to 7.00 | 0.1 to 1 µM | 6.00 to 7.00 | 6.00 to 7.00 | < 0.1 µM | > 7.00 | > 7.00 | – | – | – | – | – | – | – | – | –
8 | Cc1ncc(-c2ccc(-c3ccc(N4CC[C@@](C)(NCC5CC5)C4)nn3)c(O)c2)s1 (single isomer, unassigned) [Compound 439] | > 7.00 | > 7.00 | 0.1 to 1 µM | 6.00 to 7.00 | 6.00 to 7.00 | < 0.1 µM | > 7.00 | > 7.00 | – | – | – | – | – | – | – | – | –
9 | Cc1ncc(-c2cc(O)c(-c3ccc(N4CC[C@H](NC5CCC5)C4)nn3)cc2F)o1 [Compound 229, 2-{6-[(3S)-3-(cyclobutylamino)pyrrolidin-1-yl]pyridazin-3-yl}-4-fluoro-5-(2-methyl-1,3-oxazol-5-yl) phenol] | > 7.00 | 6.00 to 7.00 | 0.1 to 1 µM | 6.00 to 7.00 | 6.00 to 7.00 | < 0.1 µM | > 7.00 | > 7.00 | – | – | – | – | – | – | – | – | –
10 | Cc1nc(C#N)c(-c2cc(O)c(-c3ccc(N4CC[C@@H](NC5CCC5)C4)nn3)cc2F)s1 [Compound 428] | > 7.00 | 6.00 to 7.00 | 0.1 to 1 µM | 6.00 to 7.00 | 6.00 to 7.00 | 0.1 to 1 µM | 6.00 to 7.00 | 6.00 to 7.00 | – | – | – | – | – | – | – | – | –
11 | Cc1ncc(-c2cc(O)c(-c3ccc(N4CC[C@H](N(C)C(C)(C)C)C4)nn3)cc2F)s1 [Compound 322, 2-{6-[(3S)-3-[tert-butyl(methyl)amino]pyrrolidin-1-yl]pyridazin-3-yl}-4-fluoro-5-(2-methyl-1,3-thiazol-5-yl) phenol] | > 7.00 | > 7.00 | < 0.1 µM | > 7.00 | > 7.00 | < 0.1 µM | > 7.00 | > 7.00 | – | – | – | – | – | – | – | – | –
12 | COc1cc(-c2ccc(-c3ccc(N4CC[C@H](NC5(C)CCC5)C4)nn3)c(O)c2)cnn1 [Compound 289, (S)-5-(6-methoxypyridazin-4-yl)-2-(6-(3-((1-methylcyclobutyl)amino)pyrrolidin-1-yl)pyridazin-3-yl)phenol] | > 7.00 | > 7.00 | 0.1 to 1 µM | 6.00 to 7.00 | 6.00 to 7.00 | 0.1 to 1 µM | > 7.00 | > 7.00 | – | – | – | – | – | – | – | – | –
13 | COc1cc(-c2cc(O)c(-c3ccc(N4CC[C@@H](NC5CC5)C4)nn3)cc2F)cnn1 [Compound 213, 2-{6-[(3R)-3-(cyclopropylamino)pyrrolidin-1-yl]pyridazin-3-yl}-4-fluoro-5-(6-methoxypyridazin-4-yl)phenol] | > 7.00 | 5.00 to 6.00 | 1 to 10 µM | 6.00 to 7.00 | 6.00 to 7.00 | 0.1 to 1 µM | 6.00 to 7.00 | 6.00 to 7.00 | – | – | – | – | – | – | – | – | –
14 | Cc1nc2cc(O)c(-c3ccc(N4CC[C@@H](N(C)C(C)(C)C)C4)nn3)cc2o1 [Compound 859] | – | – | – | – | – | – | – | – | – | > 7.00 | 5.00 to 6.00 | 1 to 10 µM | 5.00 to 6.00 | 5.00 to 6.00 | 1 to 10 µM | 5.00 to 6.00 | 5.00 to 6.00
